From patent US9868758B2, “Betulinic proline imidazole derivatives as HIV inhibitors” (HETERO LABS LIMITED, priority 2014, dated 2018)

Assays:
[1] = test system: HIV-1 strains, for e.g., 92HT599; assay: Antiviral activity: p24 estimation in HIV-1 infected MT-2 cells; type: cell-based; details: Human immunodeficiency virus 1, MT2; MT-2 cells, p24; read-out: Antiviral activity IC50
Description: MT-2 cells were infected with required number of TCID50's of HIV-1 strains, for e.g., 92HT599. The infected cells were plated at the concentration of 30,000 cells per well in a 96 well plate. Test compound was added to the 96 well plate with the final concentration of DMSO (vehicle—not more than 1%). The plates are then incubated in a CO2 incubator for ˜96 hours (˜4 days) for viral infection. At the end of incubation period an aliquot from each well was taken for p24 estimation. The quantitation of p24 is an estimated index for antiviral activity of the compound. Percent inhibition was calculated with reference to control values (vehicle controls).
p-24 estimation was carried out using Advance biosciences kit as per the procedure detailed by supplier.

[2] = Single dose oral pharmacokinetic study; parameters: species or system mice; details: mouse, in vivo, po, 30 mg/kg
Description: The test item was administered through oral route to animals (rat/mice) at 30 mg/kg dose in a suitable vehicle at 10 ml/kg dose volume. Blood samples (˜50 uL at each time point) were collected from retro-orbital plexus using K3 EDTA as anticoagulant in eppendorf tubes at defined time intervals under light ether anesthesia. The samples were centrifuged at 3500×g to separate plasma and stored at −80° C. until analysis.
Sample analysis: Test samples were analyzed using LC-MS-MS after developing fit-for-purpose method for each of test compound.

Row | SMILES | IC50 [1] | AUC(0-t) [2] | Cmax [2]
1 | C=C(C)[C@@H]1CC[C@]2(C(=O)N3CCC[C@H]3c3nc(-c4ccccc4)cn3C)CC[C@]3(C)[C@H](CC[C@@H]4[C@@]5(C)CC[C@H](OC(=O)[C@H]6C[C@@H](C(=O)O)C6(C)C)C(C)(C)[C@@H]5CC[C@]43C)[C@@H]12 [Compound 1, (1R,3S)-2,2-dimethyl-3-((((1R,3aS,5aR,5bR,7aR,9S,11aR,11bR,13aR,13bR)-5a,5b,8,8,11a-pentamethyl-3a-((S)-2-(1-methyl-4-phenyl-1H-imidazol-2-yl)pyrrolidine-1-carbonyl)-1-(prop-1-en-2-yl)icosahydro-1H-cyclopenta[a]chrysen-9-yl)oxy)carbonyl)cyclobutane-1-carboxylic acid] | 6.74 nM | 250 µg·h/mL | 8540 ng/mL
2 | C=C(C)[C@@H]1CC[C@]2(C(=O)N3CCC[C@H]3c3nc(-c4ccccc4)cn3CCOCCOC)CC[C@]3(C)[C@H](CC[C@@H]4[C@@]5(C)CC[C@H](OC(=O)[C@H]6C[C@@H](C(=O)O)C6(C)C)C(C)(C)[C@@H]5CC[C@]43C)[C@@H]12 [Compound 2, (1R,3S)-3-((((1R,3aS,5aR,5bR,7aR,9S,11aR,11bR,13aR,13bR)-3a-((S)-2-(1-(2-(2-methoxyethoxy)ethyl)-4-phenyl-1H-imidazol-2-yl)pyrrolidine-1-carbonyl)-5a,5b,8,8,11a-pentamethyl-1-(prop-1-en-2-yl)icosahydro-1H-cyclopenta[a]chrysen-9-yl)oxy)carbonyl)-2,2-dimethyl cyclobutane-1-carboxylic acid] |  | 335 µg·h/mL | 11400 ng/mL
3 | C=C(C)[C@@H]1CC[C@]2(C(=O)N3CCC[C@H]3c3nc(-c4ccccc4)cn3CCN3CCOCC3)CC[C@]3(C)[C@H](CC[C@@H]4[C@@]5(C)CC[C@H](OC(=O)[C@H]6C[C@@H](C(=O)O)C6(C)C)C(C)(C)[C@@H]5CC[C@]43C)[C@@H]12 [Compound 3, (1R,3S)-2,2-dimethyl-3-((((1R,3aS,5aR,5bR,7aR,9S,11aR,11bR,13aR,13bR)-5a,5b,8,8,11a-pentamethyl-3a-((S)-2-(1-(2-morpholinoethyl)-4-phenyl-1H-imidazol-2-yl)pyrrolidine-1-carbonyl)-1-(prop-1-en-2-yl)icosahydro-1H-cyclopenta[a]chrysen-9-yl)oxy)carbonyl)cyclo butane-1-carboxylic acid] | 113 nM | 407 µg·h/mL | 14700 ng/mL
4 | C=C(C)[C@@H]1CC[C@]2(C(=O)N3CCC[C@H]3c3nc(-c4ccccc4)cn3CCOC)CC[C@]3(C)[C@H](CC[C@@H]4[C@@]5(C)CC[C@H](OC(=O)[C@H]6C[C@@H](C(=O)O)C6(C)C)C(C)(C)[C@@H]5CC[C@]43C)[C@@H]12 [Compound 4, (1R,3S)-3-((((1R,3aS,5aR,5bR,7aR,9S,11aR,11bR,13aR,13bR)-3a-((S)-2-(1-(2-methoxyethyl)-4-phenyl-1H-imidazol-2-yl)pyrrolidine-1-carbonyl)-5a,5b,8,8,11a-pentamethyl-1-(prop-1-en-2-yl)icosahydro-1H-cyclopenta[a]chrysen-9-yl)oxy)carbonyl)-2,2-dimethylcyclobutane-1-carboxylic acid] |  | 291 µg·h/mL | 9220 ng/mL
5 | C=C(C)[C@@H]1CC[C@]2(C(=O)N3CCC[C@H]3c3nc(-c4ccccc4)cn3CCN(C)C)CC[C@]3(C)[C@H](CC[C@@H]4[C@@]5(C)CC[C@H](OC(=O)[C@H]6C[C@@H](C(=O)O)C6(C)C)C(C)(C)[C@@H]5CC[C@]43C)[C@@H]12 [Compound 5, (1R,3S)-3-((((1R,3aS,5aR,5bR,7aR,9S,11aR,11bR,13aR,13bR)-3a-((S)-2-(1-(2-(dimethylamino)ethyl)-4-phenyl-1H-imidazol-2-yl)pyrrolidine-1-carbonyl)-5a,5b,8,8,11a-pentamethyl-1-(prop-1-en-2-yl)icosahydro-1H-cyclopenta[a]chrysen-9-yl)oxy)carbonyl)-2,2-dimethylcyclobutane-1-carboxylic acid] | 73.2 nM | 292 µg·h/mL | 10400 ng/mL
6 | C=C(C)[C@@H]1CC[C@]2(C(=O)N3CCC[C@H]3c3nc(-c4cccnc4)cn3CCN(C)C)CC[C@]3(C)[C@H](CC[C@@H]4[C@@]5(C)CC[C@H](OC(=O)[C@H]6C[C@@H](C(=O)O)C6(C)C)C(C)(C)[C@@H]5CC[C@]43C)[C@@H]12 [Compound 6, (1R,3S)-3-((((1R,3aS,5aR,5bR,7aR,9S,11aR,11bR,13aR,13bR)-3a-((S)-2-(1-(2-(dimethylamino)ethyl)-4-(pyridin-3-yl)-1H-imidazol-2-yl)pyrrolidine-1-carbonyl)-5a,5b,8,8,11a-pentamethyl-1-(prop-1-en-2-yl)icosahydro-1H-cyclopenta[a]chrysen-9-yl)oxy)carbonyl)-2,2-dimethyl cyclobutane-1-carboxylic acid] | 2.55 nM | 212 µg·h/mL | 9460 ng/mL
7 | C=C(C)[C@@H]1CC[C@]2(C(=O)N3CCC[C@H]3c3nc(-c4ccc(F)cc4)cn3CCN(C)C)CC[C@]3(C)[C@H](CC[C@@H]4[C@@]5(C)CC[C@H](OC(=O)[C@H]6C[C@@H](C(=O)O)C6(C)C)C(C)(C)[C@@H]5CC[C@]43C)[C@@H]12 [Compound 7, (1R,3S)-3-((((1R,3aS,5aR,5bR,7aR,9S,11aR,11bR,13aR,13bR)-3a-((S)-2-(1-(2-(dimethylamino)ethyl)-4-(4-fluorophenyl)-1H-imidazol-2-yl)pyrrolidine-1-carbonyl)-5a,5b,8,8,11a-pentamethyl-1-(prop-1-en-2-yl)icosahydro-1H-cyclopenta[a]chrysen-9-yl)oxy)carbonyl)-2,2-dimethyl cyclobutane-1-carboxylic acid] | 75.3 nM |  | 
8 | C=C(C)[C@@H]1CC[C@]2(C(=O)N3CCC[C@H]3c3nc(-c4ccncc4)cn3CCN(C)C)CC[C@]3(C)[C@H](CC[C@@H]4[C@@]5(C)CC[C@H](OC(=O)[C@H]6C[C@@H](C(=O)O)C6(C)C)C(C)(C)[C@@H]5CC[C@]43C)[C@@H]12 [Compound 8, (1R,3S)-3-((((1R,3aS,5aR,5bR,7aR,9S,11aR,11bR,13aR,13bR)-3a-((S)-2-(1-(2-(dimethylamino)ethyl)-4-(pyridin-4-yl)-1H-imidazol-2-yl)pyrrolidine-1-carbonyl)-5a,5b,8,8,11a-pentamethyl-1-(prop-1-en-2-yl)icosahydro-1H-cyclopenta[a]chrysen-9-yl)oxy)carbonyl)-2,2-dimethyl cyclobutane-1-carboxylic acid] | 12.5 nM | 243 µg·h/mL | 9080 ng/mL
9 | C=C(C)[C@@H]1CC[C@]2(C(=O)N3CCC[C@H]3c3nc(-c4ccncc4)cn3CCN3CCCC3)CC[C@]3(C)[C@H](CC[C@@H]4[C@@]5(C)CC[C@H](OC(=O)[C@H]6C[C@@H](C(=O)O)C6(C)C)C(C)(C)[C@@H]5CC[C@]43C)[C@@H]12 [Compound 9, (1R,3S)-2,2-dimethyl-3-((((1R,3aS,5aR,5bR,7aR,9S,11aR,11bR,13aR,13bR)-5a,5b,8,8,11a-pentamethyl-1-(prop-1-en-2-yl)-3a-((S)-2-(4-(pyridin-4-yl)-1-(2-(pyrrolidin-1-yl)ethyl)-1H-imidazol-2-yl)pyrrolidine-1-carbonyl)icosahydro-1H-cyclopenta[a]chrysen-9-yl)oxy)carbonyl) cyclobutane-1-carboxylic acid] | 10.6 nM | 260 µg·h/mL | 6900 ng/mL
10 | C=C(C)[C@@H]1CC[C@]2(C(=O)N3CCC[C@H]3c3nc(-c4ccccc4)cn3CCN3CCCC3)CC[C@]3(C)[C@H](CC[C@@H]4[C@@]5(C)CC[C@H](OC(=O)[C@H]6C[C@@H](C(=O)O)C6(C)C)C(C)(C)[C@@H]5CC[C@]43C)[C@@H]12 [Compound 10, (1R,3S)-2,2-dimethyl-3-((((1R,3aS,5aR,5bR,7aR,9S,11aR,11bR,13aR,13bR)-5a,5b,8,8,11a-pentamethyl-3a-((S)-2-(4-phenyl-1-(2-(pyrrolidin-1-yl)ethyl)-1H-imidazol-2-yl)pyrrolidine-1-carbonyl)-1-(prop-1-en-2-yl)icosahydro-1H-cyclopenta[a]chrysen-9-yl)oxy)carbonyl)cyclo butane-1-carboxylic acid] | 7.75 nM | 145 µg·h/mL | 4640 ng/mL
11 | C=C(C)[C@@H]1CC[C@]2(C(=O)N3C[C@H](OCCOC)C[C@H]3c3nc(-c4ccccc4)cn3CCN(C)C)CC[C@]3(C)[C@H](CC[C@@H]4[C@@]5(C)CC[C@H](OC(=O)[C@H]6C[C@@H](C(=O)O)C6(C)C)C(C)(C)[C@@H]5CC[C@]43C)[C@@H]12 [Compound 25, (1R,3S)-3-((((1R,3aS,5aR,5bR,7aR,9S,11aR,11bR,13aR,13bR)-3a-((2S,4R)-2-(1-(2-(dimethylamino)ethyl)-4-phenyl-1H-imidazol-2-yl)-4-(2-methoxyethoxy)pyrrolidine-1-carbonyl)-5a,5b,8,8,11a-pentamethyl-1-(prop-1-en-2-yl)icosahydro-1H-cyclopenta[a]chrysen-9-yl)oxy)carbonyl)-2,2-dimethylcyclobutane-1-carboxylic acid] |  | 617 µg·h/mL | 17600 ng/mL
